Values of other authors in patent publication US6368616B1, “Aqueous suspension for nasal administration of loteprednol” (Senju Pharmaceutical Co., Ltd., priority 1997, dated 2002).

Q: With `CCOC(=O)O[C@]1(C(=O)OCCl)CC[C@H]2[C@@H]3CCC4=CC(=O)C=C[C@]4(C)[C@H]3[C@@H](O)C[C@@]21C` [loteprednol etabonate, Loteprednol etabonate] as the compound, how does the solubility in water read?
A: substantially insoluble in water
